Reference: US20230159463A1, “BENZONITRIC HETEROCYCLIC COMPOUND, PREPARATION METHOD THEREFOR AND USE THEREOF” (SHANGHAI ZHONGZE THERAPEUTICS, CO. LTD., priority 2020, published 2023)
Each block holds one compound with its values, some of them ahead of it.

Legend:
[1] = target: T1, HDAC6 (Homo sapiens, UniProt Q9UBN7); assay: HDAC6 inhibitor screening kit (Biovision), in vitro inhibitory activity; type: biochemical
T1 construct: purchased Biovision Company
T1 sequence (Q9UBN7 1-1215): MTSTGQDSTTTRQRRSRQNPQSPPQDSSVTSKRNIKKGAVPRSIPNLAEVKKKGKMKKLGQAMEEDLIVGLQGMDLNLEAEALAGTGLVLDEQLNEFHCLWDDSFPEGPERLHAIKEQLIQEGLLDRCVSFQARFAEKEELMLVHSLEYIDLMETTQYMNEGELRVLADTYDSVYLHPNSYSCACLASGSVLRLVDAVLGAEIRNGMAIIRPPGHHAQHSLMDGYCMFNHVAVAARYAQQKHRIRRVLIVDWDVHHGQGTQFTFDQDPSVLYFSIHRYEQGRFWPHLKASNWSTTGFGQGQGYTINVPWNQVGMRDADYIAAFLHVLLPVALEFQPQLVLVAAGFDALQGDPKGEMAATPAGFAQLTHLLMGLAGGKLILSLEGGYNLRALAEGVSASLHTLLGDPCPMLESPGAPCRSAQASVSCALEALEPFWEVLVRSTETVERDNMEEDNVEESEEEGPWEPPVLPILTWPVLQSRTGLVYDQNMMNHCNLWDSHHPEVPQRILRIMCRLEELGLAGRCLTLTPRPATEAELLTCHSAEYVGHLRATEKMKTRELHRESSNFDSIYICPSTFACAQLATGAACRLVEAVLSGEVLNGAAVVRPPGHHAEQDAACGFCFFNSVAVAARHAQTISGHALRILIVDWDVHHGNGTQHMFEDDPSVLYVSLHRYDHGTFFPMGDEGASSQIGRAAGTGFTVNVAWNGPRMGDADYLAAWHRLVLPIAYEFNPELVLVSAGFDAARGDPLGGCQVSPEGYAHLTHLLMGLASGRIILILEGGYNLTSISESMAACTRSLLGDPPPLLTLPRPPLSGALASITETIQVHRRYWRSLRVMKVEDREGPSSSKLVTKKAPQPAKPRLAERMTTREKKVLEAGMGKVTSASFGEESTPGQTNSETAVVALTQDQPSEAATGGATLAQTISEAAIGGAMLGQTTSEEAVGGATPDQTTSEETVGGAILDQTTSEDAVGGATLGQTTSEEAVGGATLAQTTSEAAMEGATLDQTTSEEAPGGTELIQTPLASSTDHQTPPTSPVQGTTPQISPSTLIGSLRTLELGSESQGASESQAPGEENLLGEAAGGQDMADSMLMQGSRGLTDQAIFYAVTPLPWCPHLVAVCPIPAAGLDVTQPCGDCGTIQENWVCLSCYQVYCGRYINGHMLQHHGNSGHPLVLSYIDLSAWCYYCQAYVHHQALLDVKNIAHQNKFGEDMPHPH
Method: (§1) The in vitro inhibitory activity of histone deacetylase of the compound was determined according to the instructions of HDAC1 and HDAC6 inhibitor screening kit (Biovision Company).

[2] = target: T2, HDAC1 (Homo sapiens, UniProt Q13547); assay: HDAC1 inhibitor screening kit (Biovision), in vitro inhibitory activity; type: biochemical
T2 construct: purchased Biovision Company
T2 sequence (Q13547 whole entry): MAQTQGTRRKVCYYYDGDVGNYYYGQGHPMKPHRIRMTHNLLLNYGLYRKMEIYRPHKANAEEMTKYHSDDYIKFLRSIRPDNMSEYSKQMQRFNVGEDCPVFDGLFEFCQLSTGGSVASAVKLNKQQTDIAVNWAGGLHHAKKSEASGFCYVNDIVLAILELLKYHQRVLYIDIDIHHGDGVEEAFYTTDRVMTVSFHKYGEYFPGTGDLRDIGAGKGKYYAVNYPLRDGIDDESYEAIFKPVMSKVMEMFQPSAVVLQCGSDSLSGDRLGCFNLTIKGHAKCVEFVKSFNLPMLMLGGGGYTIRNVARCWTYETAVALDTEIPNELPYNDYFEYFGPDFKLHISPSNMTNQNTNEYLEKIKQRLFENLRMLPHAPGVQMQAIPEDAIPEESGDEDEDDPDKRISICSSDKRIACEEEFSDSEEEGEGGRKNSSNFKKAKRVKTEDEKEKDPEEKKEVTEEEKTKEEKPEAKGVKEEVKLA
Method: as §1

[3] = system: glioma cell line U-87MG; assay: In vitro anti-proliferative activity (CCK8), U-87MG; type: cell-based; conditions: Homo sapiens, 10 μM, 48 hours, CCK8, class symbol, read-out: U-87MG (Glioma) Inh % in 10 μM
[4] = system: myeloma cell line RPMI 8226; assay: In vitro anti-proliferative activity (CCK8), RPMI 8226; type: cell-based; conditions: Homo sapiens, 48 hours, class symbol, read-out: RPMI 8226 (Myeloma) Inh % in 10 μM
Method: (§2) The specific results are shown in the table (unit: […] Test method: The tumor cells in the logarithmic growth phase with good growth status were inoculated into 96-well plates at 4×10^3 per well, and 8 duplicate wells were set up in each group. The cells were cultured in a cell incubator, after the cells adhered to the wall, […]. […] The experiment was repeated 3 times, and the average of the experimental results was taken as the final experimental result, and the inhibition rate was calculated.

[5] = system: human liver cancer cell line HepG2; assay: In vitro anti-proliferative activity (CCK8), HepG2; type: cell-based; conditions: HepG2, 10 μM, 48 hours, CCK8, class symbol, read-out: Hep G2 (Liver cancer) Inh % in 10 μM
Method: as §2

[6] = system: human lung cancer cell line A549; assay: In vitro anti-proliferative activity (CCK8), A549; type: cell-based; conditions: A549, 10 μM, 48 hours, CCK8, class symbol, read-out: A549 (Lung cancer) Inh % in 10 μM
Method: as §2

[7] = system: MRC-5 human normal embryo lung fibroblast; assay: In vitro anti-proliferative activity (CCK8), MRC-5 normal cells; type: cell-based; conditions: MRC5, 10 μM, 48 hours, CCK8, class symbol, read-out: MRC-5 (Normal cell line) Inh % in 10 μM
[8] = system: mixed cells and primary neurons in rat cortex; assay: Protective effect on HCA-induced neuronal cell damage; type: cell-based; conditions: HCA 5 mmol/L; test concentration 0.1, 1.0 and 10.0 μM; compared with Tubastatin A at the same dose
[9] = target: T3, hERG potassium channels (Homo sapiens, UniProt Q12809); assay: hERG potassium channel whole-cell patch clamp; type: cell-based; conditions: hERG-HEK293 cells, IKr current
T3 construct: expressed in transfected cells
T3 sequence (Q12809 whole entry): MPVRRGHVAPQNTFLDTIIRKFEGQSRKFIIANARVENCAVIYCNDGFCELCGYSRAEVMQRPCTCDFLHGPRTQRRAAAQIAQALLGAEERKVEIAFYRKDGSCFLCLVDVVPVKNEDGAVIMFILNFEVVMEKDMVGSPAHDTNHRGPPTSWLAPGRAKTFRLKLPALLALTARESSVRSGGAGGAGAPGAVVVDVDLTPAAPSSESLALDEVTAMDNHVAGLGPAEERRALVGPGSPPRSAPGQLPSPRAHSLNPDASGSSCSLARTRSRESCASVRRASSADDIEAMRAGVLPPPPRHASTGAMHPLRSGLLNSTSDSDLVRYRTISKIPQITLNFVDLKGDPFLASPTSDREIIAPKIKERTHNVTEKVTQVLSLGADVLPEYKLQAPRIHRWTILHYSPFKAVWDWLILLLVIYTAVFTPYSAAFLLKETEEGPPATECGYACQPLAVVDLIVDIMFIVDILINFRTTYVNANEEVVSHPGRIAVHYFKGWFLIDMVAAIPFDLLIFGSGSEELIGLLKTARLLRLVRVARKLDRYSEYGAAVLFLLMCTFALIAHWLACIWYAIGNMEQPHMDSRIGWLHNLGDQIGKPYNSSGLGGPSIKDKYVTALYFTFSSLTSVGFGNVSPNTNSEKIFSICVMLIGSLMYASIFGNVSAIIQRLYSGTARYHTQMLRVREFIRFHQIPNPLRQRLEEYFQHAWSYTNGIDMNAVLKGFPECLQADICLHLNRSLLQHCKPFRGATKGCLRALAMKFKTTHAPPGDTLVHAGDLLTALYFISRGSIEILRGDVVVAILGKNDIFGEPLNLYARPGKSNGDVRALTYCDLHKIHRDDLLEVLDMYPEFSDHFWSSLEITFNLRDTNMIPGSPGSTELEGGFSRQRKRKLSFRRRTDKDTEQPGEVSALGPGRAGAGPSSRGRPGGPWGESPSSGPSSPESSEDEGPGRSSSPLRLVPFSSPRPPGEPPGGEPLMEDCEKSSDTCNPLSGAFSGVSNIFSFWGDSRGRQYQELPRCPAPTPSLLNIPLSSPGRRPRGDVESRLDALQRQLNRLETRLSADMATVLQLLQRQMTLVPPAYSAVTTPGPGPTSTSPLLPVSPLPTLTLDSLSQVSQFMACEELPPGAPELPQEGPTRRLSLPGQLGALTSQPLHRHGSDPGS
Text: Whole-cell patch clamp technique was used to record the changes of hERG current (IKr) after different concentrations of compounds acted on HEK293 cells (hERG-HEK293 steady-state cells) expressing hERG potassium channels to study the half inhibitory concentration (IC50) of the above compounds on IKr.

[10] = Maximum tolerance dose by intragastric administration; conditions: ICR, mouse, in vivo, po; mice, single intragastric administration, 14 days observation; read-out: maximum tolerated dose
Method: 40 ICR mice, half male and half […], weighing 18 to 20 g, were divided into 4 groups with 10 animals in each group. After 6 hours of fasting, the test samples in each group were taken with sterilized plastic syringe and orally gavaged at a volume of 0.3 mL/10 g. The general physical signs of animals and the death of animals were recorded at 1, 2 and 4 hours after administration. […] The dead animals were dissected to observe whether there were any visible pathological changes in the organs of the animals, and pathological examinations were carried out on suspicious tissues and organs.

Compound: O=C(NO)c1ccc(CN2CCCCc3ccc(Cl)cc32)cc1 [Compound T-1, 4-((8-chloro-2,3,4,5-tetrahydro-1H-benzo[b]azepin-1-yl)methyl)-N-hydroxybenzamide]
- IC50 [1]: 37 nM
- IC50 [2]: > 500 nM

Compound: O=C(NO)c1ccc(CN2CCCCc3ccc(Cl)cc32)cc1 [Compound T-2, 4-((8-chloro-2,3,4,5-tetrahydro-1H-benzo[b]azepin-1-yl)methyl)-N-hydroxybenzamide]
- IC50 [1]: 14 nM
- IC50 [2]: 406 nM
- inhibition at 10 µM [3]: 80 to 90%
- inhibition at 10 µM [4]: 90 to 100%
- inhibition at 10 µM [5]: 90 to 100%
- inhibition at 10 µM [6]: 70 to 80%
- inhibition at 10 µM [7]: < 50%
- protective effect against HCA-induced neuronal excitotoxicity (cell survival rate) [8]: stronger than that of the HDAC6 inhibitor compound Tubastatin A
- IC50 [9]: > 10000 nM
- MTD at 14 days [10]: > 1000 mg/kg

Compound: O=C(NO)c1ccc(CN2CCCCc3cc(F)ccc32)cc1 [Compound T-4, 4-((7-fluoro-2,3,4,5-tetrahydro-1H-benzo[b]azepin-1-yl)methyl)-N-hydroxybenzamide]
- IC50 [1]: 8.2 nM
- IC50 [2]: 414 nM

Compound: COc1cc2c(cc1OC)N(Cc1ccc(C(=O)NO)cc1)CCCC2 [Compound T-9, 4-((7,8-dimethoxy-2,3,4,5-tetrahydro-1H-benzo[b]azepin-1-yl)methyl)-N-hydroxybenzamide]
- IC50 [1]: 8.6 nM
- IC50 [2]: 269 nM

Compound: O=C(NO)c1ccc(CN2CCCCc3ccc(-c4ccccc4)cc32)cc1 [Compound T-10, 4-((8-phenyl-2,3,4,5-tetrahydro-1H-benzo[b]azepin-1-yl)methyl)-N-hydroxybenzamide]
- IC50 [1]: 129 nM
- IC50 [2]: > 500 nM

Compound: O=C(NO)c1ccc(CN2CCCCc3ccc(-c4ccncc4)cc32)cc1 [Compound T-11, 4-((8-(pyridin-4-yl)-2,3,4,5-tetrahydro-1H-benzo[b]azepin-1-yl)methyl)-N-hydroxybenzamide]
- IC50 [1]: 14.3 nM
- IC50 [2]: > 500 nM

Compound: O=C(NO)c1ccc(CN2CCCCc3ccc(C4CC4)cc32)cc1 [Compound T-12, 4-((8-cyclopropyl-2,3,4,5-tetrahydro-1H-benzo[b]azepin-1-yl)methyl)-N-hydroxybenzamide]
- IC50 [1]: 45 nM
- IC50 [2]: > 500 nM

Compound: CN(C)c1ccc2c(c1)N(Cc1ccc(C(=O)NO)cc1)CCCC2 [Compound T-13, 4-((8-dimethylamino-2,3,4,5-tetrahydro-1H-benzo[b]azepin-1-yl)methyl)-N-hydroxybenzamide]
- IC50 [1]: 85 nM
- IC50 [2]: > 500 nM

Compound: O=C(NO)c1ccc(CN2CCCCc3ccc(N4CCCCC4)cc32)cc1 [Compound T-14, 4-((8-(piperidin-1-yl)-2,3,4,5-tetrahydro-1H-benzo[b]azepin-1-yl)methyl)-N-hydroxybenzamide]
- IC50 [1]: 142 nM
- IC50 [2]: > 500 nM

Compound: CN1CCCN(Cc2ccc(C(=O)NO)cc2)c2ccccc21 [Compound T-17]
- IC50 [1]: 7.4 nM
- IC50 [2]: > 500 nM

Compound: O=C(NO)c1ccc(CN2CCCC(=O)c3ccccc32)cc1 [Compound T-18, 4-((5-oxo-2,3,4,5-tetrahydro-1H-benzo[b]azepin-1-yl)methyl)-N-hydroxybenzamide]
- IC50 [1]: 7.2 nM
- IC50 [2]: 421 nM

Compound: CN(C)C1CCCN(Cc2ccc(C(=O)NO)cc2)c2ccccc21 (stereo not drawn) [Compound T-21, 4-((5-dimethylamino-2,3,4,5-tetrahydro-1H-benzo[b]azepin-1-yl)methyl)-N-hydroxybenzamide]
- inhibition at 10 µM [3]: 80 to 90%
- inhibition at 10 µM [4]: 90 to 100%
- inhibition at 10 µM [5]: 90 to 100%
- inhibition at 10 µM [6]: 70 to 80%
- inhibition at 10 µM [7]: < 50%
- protective effect against HCA-induced neuronal excitotoxicity (cell survival rate) [8]: stronger than that of the HDAC6 inhibitor compound Tubastatin A
- IC50 [9]: > 10000 nM
- MTD at 14 days [10]: > 1000 mg/kg

Compound: O=C(NO)c1ccc(CN2CCCCc3ccccc32)cc1F [Compound T-24, 4-((2,3,4,5-tetrahydro-1H-benzo[b]azepin-1-yl)methyl)-2-fluoro-N-hydroxybenzamide]
- IC50 [1]: 12 nM
- IC50 [2]: > 500 nM

The next lines start with the values.

- IC50 [1]: 43 nM
- IC50 [2]: 400 nM
Compound: O=C(NO)c1ccc(CN2CCCCc3ccc(Br)cc32)cc1 [Compound T-3, 4-((8-bromo-2,3,4,5-tetrahydro-1H-benzo[b]azepin-1-yl)methyl)-N-hydroxybenzamide]

- IC50 [1]: 8.2 nM
- IC50 [2]: 294 nM
Compound: COc1ccc2c(c1)N(Cc1ccc(C(=O)NO)cc1)CCCC2 [Compound T-6, 4-((8-methoxy-2,3,4,5-tetrahydro-1H-benzo[b]azepin-1-yl)methyl)-N-hydroxybenzamide]

- IC50 [1]: 6.5 nM
- IC50 [2]: 277 nM
Compound: COc1cccc2c1CCCCN2Cc1ccc(C(=O)NO)cc1 [Compound T-7, 4-((6-methoxy-2,3,4,5-tetrahydro-1H-benzo[b]azepin-1-yl)methyl)-N-hydroxybenzamide]

- IC50 [1]: 9.2 nM
- IC50 [2]: 287 nM
Compound: COc1cccc2c1N(Cc1ccc(C(=O)NO)cc1)CCCC2 [Compound T-8, 4-((9-methoxy-2,3,4,5-tetrahydro-1H-benzo[b]azepin-1-yl)methyl)-N-hydroxybenzamide]

- IC50 [1]: 17 nM
- IC50 [2]: > 500 nM
Compound: COc1ccc2c(c1)CCN(Cc1ccc(C(=O)NO)cc1)CC2 [Compound T-25, 4-((7-methoxy-1,2,4,5-tetrahydro-3H-benzo[d]azepin-3-yl)methyl)-N-hydroxybenzamide]

- IC50 [1]: 97 nM
- IC50 [2]: > 500 nM
Compound: COc1cccc2c1CCN(Cc1ccc(C(=O)NO)cc1)CC2 [Compound T-26, 4-((6-methoxy-1,2,4,5-tetrahydro-3H-benzo[d]azepin-3-yl)methyl)-N-hydroxybenzamide]

- IC50 [1]: 29 nM
- IC50 [2]: 431 nM
Compound: COc1ccc(Br)c2c1CCN(Cc1ccc(C(=O)NO)cc1)CC2 [Compound T-27, 4-((6-bromo-9-methoxy-1,2,4,5-tetrahydro-3H-benzo[d]azepin-3-yl)methyl)-N-hydroxybenzamide]
